Data: paper PMC7031696 (Cell chemical biology, 2019)

Tested on: 3D7-MR4 trophozoite parasite-infected RBCs
Test: Metabolomic profiling (hydrophilic metabolite changes, UHPLC-MS)
Assay type: cell-based, Plasmodium falciparum

CN(C)Cc1ccc(-c2cc3c(-c4ccc(CN(C)C)cc4)ccnc3[nH]2)cc1.O=C(O)C(F)(F)F [MMV022224]
peptide levels (hemoglobin catabolism signature) (10 × IC50^72h, 2.5 hr, trophozoites): increased levels of peptides
Log2(fold changes) 1_3-Bisphosphoglyceric acid (metabolite 1_3-Bisphosphoglyceric acid, log2 fold change): 0.0000
Log2(fold changes) 2-Hydroxy-2-methylbutanedioic acid (metabolite 2-Hydroxy-2-methylbutanedioic acid, log2 fold change): 0.1756
Log2(fold changes) 2-Isopropylmalic acid (metabolite 2-Isopropylmalic acid, log2 fold change): 0.0000
Log2(fold changes) 2-dehydro-D-gluconate (metabolite 2-dehydro-D-gluconate, log2 fold change): 0.3564
Log2(fold changes) 2-oxo-4-methylthiobutanoate (metabolite 2-oxo-4-methylthiobutanoate, log2 fold change): 0.0000
Log2(fold changes) 2_3-Diphosphoglyceric acid (metabolite 2_3-Diphosphoglyceric acid, log2 fold change): -0.1549
Log2(fold changes) 3-phosphoglycerate (metabolite 3-phosphoglycerate, log2 fold change): -0.0795
Log2(fold changes) 3-phosphoserine (metabolite 3-phosphoserine, log2 fold change): -0.1712
Log2(fold changes) 4-Pyridoxic acid (metabolite 4-Pyridoxic acid, log2 fold change): 0.0566
Log2(fold changes) 4-aminobutyrate (metabolite 4-aminobutyrate, log2 fold change): -0.2938
Log2(fold changes) 4-phosphopantetheine (metabolite 4-phosphopantetheine, log2 fold change): -0.5209
Log2(fold changes) 4-phosphopantothenate (metabolite 4-phosphopantothenate, log2 fold change): 0.0735
Log2(fold changes) 5-aminopentanoic acid (metabolite 5-aminopentanoic acid, log2 fold change): 0.0000
Log2(fold changes) 5-methyl-THF (metabolite 5-methyl-THF, log2 fold change): 0.0000
Log2(fold changes) 5-phosphoribosyl-1-pyrophosphate (metabolite 5-phosphoribosyl-1-pyrophosphate, log2 fold change): -0.7551
Log2(fold changes) 6-phospho-D-gluconate (metabolite 6-phospho-D-gluconate, log2 fold change): -0.0328
Log2(fold changes) ADP-D-glucose (metabolite ADP-D-glucose, log2 fold change): 0.0037
Log2(fold changes) Acetyl-glycine (metabolite Acetyl-glycine, log2 fold change): 0.0000
Log2(fold changes) Acetyllysine (metabolite Acetyllysine, log2 fold change): 0.0000
Log2(fold changes) Aminoadipic acid (metabolite Aminoadipic acid, log2 fold change): 0.0000
Log2(fold changes) CDP (metabolite CDP, log2 fold change): -0.4119
Log2(fold changes) CDP-choline (metabolite CDP-choline, log2 fold change): 0.2972
Log2(fold changes) CDP-ethanolamine (metabolite CDP-ethanolamine, log2 fold change): 0.0000
Log2(fold change) of CMP (metabolite CMP): 0.3976
Log2(fold change) of CTP (metabolite CTP): -0.2057
Log2(fold changes) Citraconic acid (metabolite Citraconic acid, log2 fold change): 0.0000
Log2(fold change) of D-glucarate (metabolite D-glucarate): 0.0159
Log2(fold change) of D-gluconate (metabolite D-gluconate): -0.4042
Log2(fold change) of D-glucosamine-1/6-phosphate (metabolite D-glucosamine-1/6-phosphate): 0.0000
Log2(fold change) of D-sedoheptulose-1/7-phosphate (metabolite D-sedoheptulose-1/7-phosphate): 0.3067
Log2(fold change) of DL-Pipecolic Acid (metabolite DL-Pipecolic Acid): 0.0000
Log2(fold change) of DLH (metabolite DLH): 0.8439
Log2(fold change) of DLS (metabolite DLS): 0.5887
Log2(fold change) of Decanoyl-CoA (metabolite Decanoyl-CoA): 0.0000
Log2(fold change) of EV (metabolite EV): 0.0000
Log2(fold change) of FAD (metabolite FAD): 0.8383
Log2(fold change) of FMN (metabolite FMN): 0.1361
Log2(fold change) of G3P/DHAP (metabolite G3P/DHAP): 0.0585
Log2(fold change) of GDP (metabolite GDP): -0.5545
Log2(fold change) GMP (metabolite GMP): -0.0052
Log2(fold change) GTP (metabolite GTP): -0.2843
Log2(fold change) HVDD (metabolite HVDD): 0.7226
Log2(fold change) Hexose (metabolite Hexose): 0.3496
Log2(fold change) Hydroxyisocaproic acid (metabolite Hydroxyisocaproic acid): 0.0000
Log2(fold change) IDP (metabolite IDP): 0.0000
Log2(fold change) IMP (metabolite IMP): 0.0372
Log2(fold change) Inositol (metabolite Inositol): 0.0000
Log2(fold change) Isopentyl-PP (metabolite Isopentyl-PP): 0.0000
Log2(fold change) L-arginino-succinate (metabolite L-arginino-succinate): -0.1932
Log2(fold change) LD (metabolite LD): 0.8668
Log2(fold change) Myristoyl/tetradecanoyl-CoA (metabolite Myristoyl/tetradecanoyl-CoA): 0.0000
Log2(fold change) N-Acetyl-L-alanine (metabolite N-Acetyl-L-alanine): -0.6716
Log2(fold change) N-acetyl-L-ornithine (metabolite N-acetyl-L-ornithine): 0.0000
Log2(fold change) N-acetyl-glucosamine-1/6-phosphate (metabolite N-acetyl-glucosamine-1/6-phosphate): -0.1039
Log2(fold change) N-acetyl-glutamate (metabolite N-acetyl-glutamate): -0.3449
Log2(fold change) N-acetyl-glutamine (metabolite N-acetyl-glutamine): -1.3853
Log2(fold change) N-carbamoyl-L-aspartate (metabolite N-carbamoyl-L-aspartate): -0.1955
Log2(fold change) NAD+ (metabolite NAD+): -0.0358
Log2(fold change) NADH (metabolite NADH): 1.5825
Log2(fold change) NADP+ (metabolite NADP+): 0.0717
Log2(fold change) NADPH (metabolite NADPH): 1.3580
Log2(fold change) O-acetyl-L-serine (metabolite O-acetyl-L-serine): 0.0000
Log2(fold change) Octoluse 8/1P (metabolite Octoluse 8/1P): 0.5111
Log2(fold change) Octoluse Bisphosphate (metabolite Octoluse Bisphosphate): -0.3203
Log2(fold change) PD (metabolite PD): -0.9637
Log2(fold change) PE (metabolite PE): 0.0520
Log2(fold change) PEE (metabolite PEE): 0.3860
Log2(fold change) PEEK (metabolite PEEK): 1.9585
Log2(fold change) PVNF (metabolite PVNF): 0.5887
Log2(fold change) Pyroglutamic acid (metabolite Pyroglutamic acid): -0.2368
Log2(fold change) Pyrophosphate (metabolite Pyrophosphate): 0.0000
Log2(fold change) Ribose-5-phosphate (metabolite Ribose-5-phosphate): -0.2008
Log2(fold change) S-adenosyl-L-homocysteine (metabolite S-adenosyl-L-homocysteine): 0.3352
Log2(fold change) S-adenosyl-L-methioninamine (metabolite S-adenosyl-L-methioninamine): 0.0000
Log2(fold change) S-adenosyl-L-methionine (metabolite S-adenosyl-L-methionine): 0.0000
Log2(fold change) S-methyl-5'-thioadenosine (metabolite S-methyl-5'-thioadenosine): 0.2721
Log2(fold change) SD (metabolite SD): -0.1612
Log2(fold change) SDL (metabolite SDL): 0.5371
Log2(fold change) SID (metabolite SID): 0.0000
Log2(fold change) Sedoheptulose bisphosphate (metabolite Sedoheptulose bisphosphate): 0.0035
Log2(fold change) Thiamine pyrophosphate (metabolite Thiamine pyrophosphate): -0.0731
Log2(fold changes) UDP-D-glucose (metabolite UDP-D-glucose, log2 fold change): 0.0091
Log2(fold changes) UDP-D-glucuronate (metabolite UDP-D-glucuronate, log2 fold change): -0.1151
Log2(fold changes) UDP-N-acetyl-glucosamine (metabolite UDP-N-acetyl-glucosamine, log2 fold change): -0.0367
Log2(fold changes) UDP (metabolite UDP, log2 fold change): -0.5308
Log2(fold changes) UMP (metabolite UMP, log2 fold change): 0.0364
Log2(fold changes) UTP (metabolite UTP, log2 fold change): -0.1207
Log2(fold changes) VD (metabolite VD, log2 fold change): 0.0000
Log2(fold changes) Xanthurenic acid (metabolite Xanthurenic acid, log2 fold change): 0.0000
Log2(fold changes) a-ketoglutarate (metabolite a-ketoglutarate, log2 fold change): -0.4532
Log2(fold changes) acetyl-CoA (metabolite acetyl-CoA, log2 fold change): -0.3299
Log2(fold changes) acetyl-aspartate (metabolite acetyl-aspartate, log2 fold change): -0.2105
Log2(fold changes) acetylphosphate (metabolite acetylphosphate, log2 fold change): 0.0000
Log2(fold changes) aconitate (metabolite aconitate, log2 fold change): -0.2855
Log2(fold changes) adenine (metabolite adenine, log2 fold change): 0.0812
Log2(fold changes) adenosine 5'-phosphosulfate (metabolite adenosine 5'-phosphosulfate, log2 fold change): 0.0000
